Patent US20260207605A1, “KRAS G12D INHIBITORS AND USES THEREOF” (Abbisko Therapeutics Co., Ltd., priority 2022, published 2026)

How the values were obtained:
AGS = assay: Anti-proliferative 2D CTG assay, AGS; assay type: cell-based; settings: Homo sapiens, AGS, 96 h, AGS cells, 4 days incubation, read-out: AGS cell IC50
Experimental: (§1) 1.1 Day 0 Cell Culture and Plating
(§2) Cells in a logarithmic growth phase were harvested and the cells were counted by using a […]. Cell viability was tested by using a trypan blue exclusion method to ensure that cell viability was above 90%. The cell concentration was adjusted to the desired final density, and 90 μL of cell suspension was added to a 96-well plate, then the cells were incubated overnight at 37° C., 5% CO2 and 95% humidity.
(§3) 10 μL PBS was added to each well of the TO plate containing cells. The CTG reagent was thawed and the plate was equilibrated to room temperature for 30 minutes. The CTG solution of 50 µL/well was added to each well. The cells were lysed by shaking on an orbital shaker for 5 minutes. The plate was left at room temperature for 20 minutes to stabilize the luminescence signal. The TO fluorescence signal value was read.
(§4) From the 10 mM stock solution, with a ratio of 1:5, 9-point serial dilutions were performed. The 10× medium containing the compound was transferred into corresponding wells of the 96 wells. The final maximum compound concentration was […] and the final DMSO concentration was 0.1%. The 96-well plate was placed in a 37° C. incubator and incubated for 4 days.
(§5) 50 μL/well of detection reagent (CTG) was added to the cells, and the signal was read in an Envision machine.
(§6) The percent inhibition (%) at each compound concentration was calculated from the signal in the HPE and ZPE control wells and the fluorescence signal in the individual compound wells included in each assay plate. […] The compound concentration required for inhibitory concentration at 50% (IC50) was determined using a four-parameter logarithmic dose-response equation by testing the concentration of the compound and the inhibition percentage value. The endpoint value (IC50) of the reference compound was assessed in each experiment as a quality control measure. If the endpoint value is within three times the expected value, the experiment may be considered acceptable.

KRAS^G12D/cRAF = KRAS^G12D/cRAF (Homo sapiens, UniProt P01116, G12D); assay: KRAS G12D/cRAF binding test (Alphalisa); settings: His-tagged KRAS G12D with GMPPNP, GST-tagged cRAF
KRAS^G12D/cRAF, sequence (P01116 1-188 isoform P01116-2 G12D): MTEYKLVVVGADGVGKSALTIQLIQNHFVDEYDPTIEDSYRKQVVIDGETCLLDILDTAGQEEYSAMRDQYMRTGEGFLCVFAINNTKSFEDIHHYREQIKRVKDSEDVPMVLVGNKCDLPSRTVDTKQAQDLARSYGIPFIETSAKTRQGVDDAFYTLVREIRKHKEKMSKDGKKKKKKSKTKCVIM
Experimental: The compound was dissolved in 100% DMSO at a starting concentration of 5 mM and diluted in DMSO with a 3-fold serial dilution method for a total of 8 concentration points. 1 μL of the compound or DMSO at each concentration point was added into 99 μL of the experimental buffer to obtain 10× stock solution.
The ratio for each compound concentration was calculated from the signal of the DMSO control group contained in each assay plate and the Alphalisa signal in each compound well. The compound concentration required for inhibitory concentration at 50% (IC50) was determined using a four-parameter logarithmic dose-response equation by testing the concentration of the compound and the value of the ratio. The endpoint value (IC50) of the reference compound was assessed in each experiment as a quality control measure. If the endpoint value is within three times the expected value, the experiment may be considered acceptable.

AsPC-1 = assay: Anti-proliferative 2D CTG assay, AsPC-1; assay type: cell-based; settings: Homo sapiens, ASPC1, 96 h, AsPC-1 cells, 4 days incubation, read-out: AsPC-1 cell IC50
Experimental: as §1, §2, §3, §4, §5, §6

[1] = Pharmacokinetic experiment in mice (single PO or IV administration); settings: male, ICR, mouse, plasma
Excerpt: The purpose of this trial is to study the pharmacokinetic behavior of some compounds of the present invention, and the administration method is: single oral administration (PO) or intravenous administration (IV) to ICR mice.
ICR mice male N=9 original source: Shanghai Sippr-Bk Lab Animal Co., Ltd.
The compounds were weighed and dissolved in the corresponding solution (0.5% CMC+1% tween water solution or 10% PG+10% Solutol®+80% pH3 citrate buffer). The mixture was then shaken well and sonicated to prepare a 1 mg/mL stock solution. Nine mice were orally administered at a dose of 10 mg/kg or intravenously administered at a dose of 2 mg/kg after an overnight fast.
About 90 μL of blood was collected via the submandibular vein per time point, heparin sodium anticoagulant was added, the sample was placed on ice after collection, and plasma was centrifuged within 1 hour (centrifugation conditions: 8,000 rpm, 6 minutes, 2-8° C.). The blood collection timepoints were 0, 0.25, 0.5, 1, 2, 4, 6, 8 and 24 h. The samples were stored in a −20° C. refrigerator.
The plasma sample was 40 μL, 160 μL of ice-cold acetonitrile containing internal standard was added, vortexed for 3 minutes, and centrifuged at 11,000 rpm for 5 minutes. 100 μL of the supernatant was taken and added to 100 μL of water, 5 μL of the sample was taken and injected into LC/MS/MS for analysis.

## [2H]C([2H])([2H])OCC12CCC(CN(c3nc(OCC45CC(=C)CN4CC(=C)C5)nc4c(F)c(-c5cc(O)cc6ccc(F)c(C#C)c56)nc(OC)c34)C1)N2 (single isomer, unassigned) [Example 173]
AGS
  IC50: 26.4 nM

## [2H]C([2H])([2H])OCC12CCC(CN(c3nc(OCC45CC(=C)CN4CC(=C)C5)nc4c(F)c(-c5cc(O)cc6ccc(F)c(C#C)c56)ncc34)C1)N2 (stereo not drawn) [Example 1, 4-(2-((2,6-dimethylenetetrahydro-1H-pyrrolizin-7a(5H)-yl)methoxy)-8-fluoro-4-(1-((methoxy-d3)methyl)-3,8-diazabicyclo[3.2.1]octan-3-yl)pyrido[4,3-d]pyrimidin-7-yl)-5-ethynyl-6-fluoronaphthalen-2-ol]
AGS
  IC50: 22.9 nM
KRAS^G12D/cRAF
  IC50: 37.4 nM

## C#Cc1c(F)ccc2cc(O)cc(-c3ncc4c(N5CC6CCC(C(C)(C)O)(C5)N6)nc(OCC56CC(=C)CN5CC(=C)C6)nc4c3F)c12 (stereo not drawn) [Example 2, 4-(2-((2,6-dimethylenetetrahydro-1H-pyrrolizin-7a(5H)-yl)methoxy)-8-fluoro-4-(1-(2-hydroxypropan-2-yl)-3,8-diazabicyclo[3.2.1]octan-3-yl)pyrido[4,3-d]pyrimidin-7-yl)-5-ethynyl-6-fluoronaphthalen-2-ol]
AGS
  IC50: 251 nM
KRAS^G12D/cRAF
  IC50: 48.2 nM

## C#Cc1c(F)ccc2cc(O)cc(-c3ncc4c(N5C[C@@H]6CC[C@](CC)(C5)N6)nc(OCC56CC(=C)CN5CC(=C)C6)nc4c3F)c12 [Example 5, 4-(2-((2,6-dimethylenetetrahydro-1H-pyrrolizin-7a(5H)-yl)methoxy)-4-((1R,5S)-1-ethyl-3,8-diazabicyclo[3.2.1]octan-3-yl)-8-fluoropyrido[4,3-d]pyrimidin-7-yl)-5-ethynyl-6-fluoronaphthalen-2-ol]
AGS
  IC50: 14.1 nM
AsPC-1
  IC50: 45.8 nM
KRAS^G12D/cRAF
  IC50: 16.5 nM

## [2H]C([2H])([2H])C12CCC(CN(c3nc(OCC45CC(=C)CN4CC(=C)C5)nc4c(F)c(-c5cc(O)cc6ccc(F)c(C#C)c56)ncc34)C1)N2 (stereo not drawn) [Example 6, 4-(2-((2,6-dimethylenetetrahydro-1H-pyrrolizin-7a(5H)-yl)methoxy)-8-fluoro-4-(1-(methyl-d3)-3,8-diazabicyclo[3.2.1]octan-3-yl)pyrido[4,3-d]pyrimidin-7-yl)-5-ethynyl-6-fluoronaphtha len-2-ol]
AGS
  IC50: 14.3 nM
AsPC-1
  IC50: 48.9 nM
KRAS^G12D/cRAF
  IC50: 3.2 nM

## C#Cc1c(F)ccc2cc(O)cc(-c3ncc4c(N5CC6CCC(COC)(C5)N6)nc(OCC56CC(=C)CN5CC(=C)C6)nc4c3F)c12 (stereo not drawn) [Example 8, 4-(2-((2,6-dimethylenetetrahydro-1H-pyrrolizin-7a(5H)-yl)methoxy)-8-fluoro-4-(1-(methoxymethyl)-3,8-diazabicyclo[3.2.1]octan-3-yl)pyrido[4,3-d]pyrimidin-7-yl)-5-ethynyl-6-fluoronaphthalen-2-ol]
AGS
  IC50: 36.8 nM

## C#Cc1c(F)ccc2cc(O)cc(-c3ncc4c(N5C[C@@H]6CC[C@](C7CC7)(C5)N6)nc(OCC56CC(=C)CN5CC(=C)C6)nc4c3F)c12 [Example 12, 4-(4-((1S,5S)-1-cyclopropyl-3,8-diazabicyclo[3.2.1]octan-3-yl)-2-((2,6-dimethylenetetrahydro-1H-pyrrolizin-7a(5H)-yl)methoxy)-8-fluoropyrido[4,3-d]pyrimidin-7-yl)-5-ethynyl-6-fluoronaphthalen-2-ol]
AGS
  IC50: 104 nM
AsPC-1
  IC50: 219 nM
KRAS^G12D/cRAF
  IC50: 102 nM

## [2H]C([2H])([2H])[C@@]12CC[C@@H](CN(c3nc(OC[C@@]45CCCN4C/C(=C\F)C5)nc4c(F)c(-c5cc(O)cc6ccc(F)c(C#C)c56)ncc34)C1)N2 [Example 53, 5-ethynyl-6-fluoro-4-(8-fluoro-2-(((S,Z)-2-(fluoromethylene)tetrahydro-1H-pyrrolizin-7a(5H)-yl)methoxy)-4-((1R,5S)-1-(methyl-d3)-3,8-diazabicyclo [3.2.1]octan-3-yl)pyrido[4,3-d]pyrimidin-7-yl)naphthalen-2-ol]
AGS
  IC50: 1 nM
KRAS^G12D/cRAF
  IC50: 16.6 nM

## C#Cc1c(F)ccc2cc(O)cc(-c3ncc4c(N5C[C@@H]6CC[C@](COC)(C5)N6)nc(OC[C@@]56CCCN5C/C(=C/F)C6)nc4c3F)c12 [Example 82, 5-ethynyl-6-fluoro-4-(8-fluoro-2-(((S,E)-2-(fluoromethylene)tetrahydro-1H-pyrrolizin-7a (5H)-yl)methoxy)-4-((1R,5S)-1-(methoxymethyl)-3,8-diazabicyclo [3.2.1]octan-3-yl)pyrido[4,3-d]pyrimidin-7-yl)naphthalen-2-ol]
KRAS^G12D/cRAF
  IC50: 8.1 nM

## [2H]C([2H])([2H])Oc1nc(-c2cc(O)cc3ccc(F)c(C#C)c23)c(F)c2nc(OCC34CC(=C)CN3CC(=C)C4)nc(N3CC4CCC(CC)(C3)N4)c12 (stereo not drawn) [Example 201, 4-(2-((2,6-dimethylenetetrahydro-1H-pyrrolizin-7a(5H)-yl)methoxy)-4-(1-ethyl-3,8-diazabicyclo[3.2.1]octan-3-yl)-8-fluoro-5-(methoxy-d3)pyrido[4,3-d]pyrimidin-7-yl)-5-ethynyl-6-fluoronaphthalen-2-ol]
AGS
  IC50: 21.6 nM

## [2H]C([2H])([2H])Oc1nc(-c2cc(O)cc3ccc(F)c(C#C)c23)c(F)c2nc(OC[C@@]34CCCN3C/C(=C\F)C4)nc(N3CC4CCC(CC)(C3)N4)c12 (stereo partly drawn) [Example 204, 4-(4-(1-ethyl-3,8-diazabicyclo [3.2.1]octan-3-yl)-8-fluoro-2-(((S,Z)-2-(fluoromethylene)tetrahydro-1H-pyrrolizin-7a(5H)-yl)methoxy)-5-(methoxy-d3)pyrido [4,3-d]pyrimidin-7-yl)-5-ethynyl-6-fluoronaphthalen-2-ol]
AGS
  IC50: 5.1 nM
KRAS^G12D/cRAF
  IC50: 3.9 nM

## [2H]C([2H])([2H])C([2H])([2H])[C@@]12CC[C@@H](CN(c3nc(OC[C@@]45CCCN4C/C(=C\F)C5)nc4c(F)c(-c5ccc(F)c6sc(N)c(C#N)c56)c(Cl)cc34)C1)N2 [Example 360, 2-amino-4-(6-chloro-4-((1R,5S)-1-(ethyl-d5)-3,8-diazabicyclo [3.2.1]octan-3-yl)-8-fluoro-2-(((S,Z)-2-(fluoromethylene)tetra-hydro-1H-pyrrolizin-7a(5H)-yl)methoxy)quinazolin-7-yl)-7-fluoro-benzo[b]thiophene-3-carbonitrile]
KRAS^G12D/cRAF
  IC50: 20.2 nM

## C#Cc1c(F)ccc2cc(O)cc(-c3ncc4c(N5C[C@H]6CC[C@@H](C5)N6)nc(OC[C@@]56CCCN5C/C(=C\F)C6)nc4c3F)c12 [Reference Compound 1, 4-(4-((1R,5S)-3,8-diazabicyclo [3.2.1]octan-3-yl)-8-fluoro-2-(((S,Z)-2-(fluoromethylene)tetrahydro-1H-pyrrolizin-7a(5H)-yl)methoxy)pyrido[4,3-d]pyrimidin-7-yl)-5-ethynyl-6-fluoronaphthalen-2-ol, reference compound]
[1]; iv, 2 mg/kg
  AUC: 688 ng·h/mL
  Cmax: 1690 ng/mL
  half-life: 10.5 h
[1]; po, 10 mg/kg
  AUC: 82.6 ng·h/mL
  Cmax: 33.2 ng/mL
  bioavailability: 2.4%
  half-life: 2.6 h

## C#Cc1c(F)ccc2cc(O)cc(-c3ncc4c(N5C[C@H]6CC[C@@H](C5)N6)nc(OC[C@@]56CCCN5C/C(=C/F)C6)nc4c3F)c12 [Reference Compound 2, 4-(4-((1R,5S)-3,8-diazabicyclo [3.2.1]octan-3-yl)-8-fluoro-2-(((S,E)-2-(fluoromethylene)tetrahydro-1H-pyrrolizin-7a(5H)-yl)methoxy)pyrido[4,3-d]pyrimidin-7-yl)-5-ethynyl-6-fluoronaphthalen-2-ol, reference compound]
[1]; iv, 2 mg/kg
  AUC: 718 ng·h/mL
  Cmax: 1350 ng/mL
  half-life: 14.1 h
[1]; po, 10 mg/kg
  AUC: 43.2 ng·h/mL
  Cmax: 27.7 ng/mL
  bioavailability: 1.2%
  half-life: 2.3 h

## C#Cc1c(F)ccc2cc(O)cc(-c3ncc4c(N5C[C@H]6CC[C@@H](C5)N6)nc(OC[C@@]56CCCN5CC(=C)C6)nc4c3F)c12 [Reference Compound 3, 4-(4-((1R,5S)-3,8-diazabicyclo [3.2.1]octan-3-yl)-8-fluoro-2-(((S)-2-methylenetetrahydro-1H-pyrrolizin-7a(5H)-yl)methoxy)pyrido[4,3-d]pyrimidin-7-yl)-5-ethynyl-6-fluoronaphthalen-2-ol, reference compound]
[1]; po, 10 mg/kg
  AUC: 27.1 ng·h/mL
  Cmax: 10.7 ng/mL
  half-life: 2.6 h
